From patent US20070135499A1 (Aerie Pharmaceuticals, Inc., priority 2005, published 2007) come the findings set out here.

The target of the experiment is T1, hGRK-2 (Homo sapiens, UniProt P25098).
T1 sequence (P25098 1-689): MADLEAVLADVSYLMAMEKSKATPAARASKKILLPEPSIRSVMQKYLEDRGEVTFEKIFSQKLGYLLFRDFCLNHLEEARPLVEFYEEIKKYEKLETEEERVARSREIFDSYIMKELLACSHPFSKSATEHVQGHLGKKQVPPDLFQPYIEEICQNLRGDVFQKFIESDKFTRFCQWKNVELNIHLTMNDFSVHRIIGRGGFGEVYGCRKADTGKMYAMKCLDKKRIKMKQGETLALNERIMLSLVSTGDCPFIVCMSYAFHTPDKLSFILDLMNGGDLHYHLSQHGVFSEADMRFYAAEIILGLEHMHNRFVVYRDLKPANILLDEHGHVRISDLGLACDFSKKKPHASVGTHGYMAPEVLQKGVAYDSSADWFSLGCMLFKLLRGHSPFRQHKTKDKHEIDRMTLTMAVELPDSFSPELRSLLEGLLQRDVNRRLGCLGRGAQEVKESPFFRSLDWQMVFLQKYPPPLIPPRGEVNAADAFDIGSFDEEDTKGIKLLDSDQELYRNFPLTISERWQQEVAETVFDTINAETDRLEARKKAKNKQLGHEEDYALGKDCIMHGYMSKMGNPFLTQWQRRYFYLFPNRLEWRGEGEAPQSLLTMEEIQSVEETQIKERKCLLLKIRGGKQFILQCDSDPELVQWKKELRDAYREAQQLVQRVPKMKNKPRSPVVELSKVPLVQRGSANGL
Description: luciferase-based (Kinase-Glo) biochemical kinase inhibition assay, hGRK-2. The conditions noted are these: luciferase assay, casein substrate, 10 μM ATP; read-out: GRK-2 inhibition, Ki class. As for the experimental part:
The inhibition of G-protein-coupled receptor kinases including hGRK-2 was determined for the hydrazide compounds using a biochemical assay. The inhibition of GRK-3, GRK-5 and GRK-6 was also determined using the same assay for some of the hydrazide derivatives.
The protein kinase inhibition was determined using a biochemical assay utilizing the light emission of a luciferase reaction. The luciferase-based assay operates on the following reaction principles: [drawing 10]
An inhibitor of GRK-2 will increase in the amount of ATP in solution, as shown. Thus, an inhibitor of GRK-2 will drive the luciferase reaction to the right, resulting in more light emitted. The amount of light emitted is proportional to the inhibition resulting from the GRK-2 inhibitor. The luciferase-based assay was also used to test some of the hydrazides for the inhibition properties towards other kinases.
The test procedure was as follows:
• 50 mM HEPES, pH 7.5 • 10 mM MgCl2 • 100 μM activated sodium orthovanadate • 0.01% CHAPS • 0.1% BSA • 1 mM DTT (added fresh daily) 10× Assay Buffer Stock: • 500 mM HEPES, pH 7.5 • 100 mM MgCl2 • 1 mM activated sodium orthovanadate • 0.1% CHAPS • 1% BSA (leave out for 10× compound dilution buffer) Final Assay Conditions: • 50 μM test compound • 20 μM casein • 10 μM ATP • 50 nM hGRK2 • 4.5% DMSO • 90-120 minute incubation
Stopped by addition of 30 μl 3×-diluted Kinase-Glo reagent containing 0.01% trypan blue. Counted on FUSION plate reader.
Compound Dilution and Transfer
Prepare sufficient buffer containing 40% DMSO to add 20 μl/well to the number of plates being assayed. This buffer should not contain BSA because it will precipitate with addition of 40% DMSO. (EXAMPLE: To make 3000 ml compound dilution buffer: 1200 ml DMSO, 180 ml 10× compound dilution buffer, 1615 ml ultrapure water, 3 ml 1M DTT.).
Using Multidrop, add 20 μl of compound dilution buffer to all wells of the 384-well daughter plate (add 1 μl DMSO to control wells). This will result in a daughter plate which contains 21 μl of ˜500 μM test compound.
Using the PlateTrak, transfer 5 μl of the test compounds to a 384-well, non-binding, white microtiter plate.
Prepare sufficient volume of buffer (with BSA and 1 mM DTT) containing 125 nM GRK2 and 25 μM ATP. (Example: To 219 ml of buffer was added 550 μl 10 mM ATP and 350 μl 79 μM GRK2).
Using Multidrop, add 20 μl of GRK2/ATP mixture to all wells of the microtiter plate.
Prepare sufficient volume of buffer (with BSA and 1 mM DTT) containing 40 μM casein. (EXAMPLE: To 211 ml buffer add 8.8 ml 1 mM casein)
Using Multidrop, add 25 μl to columns 1 through 23 of the microtiter plate. Add 25 μl of complete buffer to column 24 (blanks).
Mix reaction gently by tapping (Multidrop addition of casein does a decent job of mixing), stack plates and incubate at room temperature for between 90 and 120 minutes. Assay progression can be tracked in a separate plate if desired. Target 20-30% ATP consumption. Try to avoid exceeding 40% consumption as kinetics might become non-linear due to substrate (ATP) depletion.
Addition of Kinase-Glo Reagents
The Kinase-Glo reagent can be diluted 3-fold with no loss of data quality in this assay. Additionally, since the library contains many colored compounds which will quench the light emitted from the well resulting in a false negative (kinase inhibitors result in less ATP consumption thus more light emitted), the entire reaction is subject to intentional quench to override this effect. This intentional quench is accomplished by the addition of 0.01% trypan blue to the Kinase-Glo reagents. (EXAMPLE: 100 ml 1× Kinase-Glo reagents (prepared according to product insert), 200 ml assay buffer, 7.5 ml 0.4% trypan blue.
Using Multidrop, add 30 μl to all wells of the assay plate.
Count on FUSION plate reader in luminescence mode.

As for `Cc1cccc(NCC(=O)N/N=C/c2c(Cl)cncc2Cl)c1` [Example 8, m-Tolylamino-acetic acid [1-(3,5-dichloro-pyridin-4-yl)-meth-(E)-ylidene]-hydrazide], the Ki was 1 to 10 µM.
The result for `O=C(CNc1cccc(-n2cccn2)c1)N/N=C/c1ccncc1` [Example 82, (3-Pyrazol-1-yl-phenylamino)-acetic acid [1-pyridin-4-yl-meth-(E)-ylidene]-hydrazide] reads over 10 µM.
For the compound `Cc1ccc(Oc2cccc(NCC(=O)N/N=C/c3c(Cl)cncc3Cl)c2)cc1` [Example 35, (3-p-Tolyloxy-phenylamino)-acetic acid [1-(3,5-dichloro-pyridin-4-yl)-meth-(E)-ylidene]-hydrazide], the Ki was in the range of 1 to 10 µM.
Regarding `N#Cc1cccc(NCC(=O)N/N=C/c2ccncc2)c1` [Example 39, (3-Cyano-phenylamino)-acetic acid [1-pyridin-4-yl-meth-(E)-ylidene]-hydrazide], the Ki was 1 to 10 µM.
The same measure for `N#Cc1cccc(NCC(=O)N/N=C/c2c(Cl)cncc2Cl)c1` [Example 3, (3-Cyano-phenylamino)-acetic acid [1-(3,5-dichloro-pyridin-4-yl)-meth-(E)-ylidene]-hydrazide]: 1 to 10 µM; for `O=C(CNc1cccc(Cl)c1)NNCc1ccncc1` [Example 95, (3-Chloro-phenylamino)-acetic acid N′-pyridin-4-ylmethyl-hydrazide]: over 10 µM; for `Cc1ccc(NCC(=O)N/N=C/c2ccncc2)cc1` [Example 56, (4-Methyl-phenylamino)-acetic acid [1-pyridin-4-yl-meth-(E)-ylidene]-hydrazide]: over 10 µM.
Consider `CS(=O)(=O)Nc1cccc(NCC(=O)N/N=C/c2ccncc2)c1` [Example 64], for which the Ki is over 10 µM.
The same measure for `O=C(CNc1cccc(C(=O)NCCN2CCOCC2)c1)N/N=C/c1c(Cl)cncc1Cl` [Example 33, 3-{[1-(3,5-Dichloro-pyridin-4-yl)-meth-(E)-ylidene-hydrazinocarbonylmethyl]-amino}-N-(2-morpholin-4-yl-ethyl)-benzamide]: 0.01 to 0.1 µM.
The same measure for `O=C(CNc1cccc(Oc2ccc(F)c(F)c2)c1)N/N=C/c1ccncc1` [Example 83, [3-(3,4-Difluoro-phenoxy)-phenylamino]-acetic acid [1-pyridin-4-yl-meth-(E)-ylidene]-hydrazide]: 0.1 to 1 µM; for `Cc1ccccc1Oc1ccccc1NCC(=O)N/N=C/c1c(Cl)cncc1Cl` [Example 30, (^2-o-Tolyloxy-phenylamino)-acetic acid [1-(3,5-dichloro-pyridin-4-yl)-meth-(E)-ylidene]-hydrazide]: over 10 µM.
As for `O=C(CNc1cccc([N+](=O)[O-])c1)N/N=C/c1c(Cl)cncc1Cl` [Example 7, (3-Nitro-phenylamino)-acetic acid [1-(3,5-dichloro-pyridin-4-yl)-meth-(E)-ylidene]-hydrazide], the Ki is 1 to 10 µM.
The same measure for `CC(C)Oc1cccc(NCC(=O)N/N=C/c2ccncc2)c1` [Example 58, (3-Isopropoxy-phenylamino)-acetic acid [1-pyridin-4-yl-meth-(E)-ylidene]-hydrazide]: 1 to 10 µM.
The result for “Dimethyl-carbamic acid 3-{[1-pyridin-4-yl-meth-(E)-ylidene-hydrazinocarbonyl-methyl]-amino}-phenyl ester [Example 101]” reads over 10 µM; that for `O=C(CNc1cccc(Cl)c1)N/N=C/c1ccnc2ccccc12` [Example 91, (3-Chloro-phenylamino)-acetic acid [1-quinolin-4-yl-meth-(E)-ylidene]-hydrazide], over 10 µM; that for `O=C(CNc1cccc(Oc2ccc(OC(F)(F)F)cc2)c1)NN=Cc1ccncc1` (mixture of isomers) [Example 77, [3-(4-Trifluoromethoxy-phenoxy)-phenylamino]-acetic acid [1-pyridin-4-yl-meth-(E/Z)-ylidene]-hydrazide], 0.1 to 1 µM.
The same measure for `O=C(CNc1cccc(Cl)c1)N/N=C/c1ccsc1` [Example 93, (3-Chloro-phenylamino)-acetic acid [1-thiophen-3-yl-meth-(E)-ylidene]-hydrazide]: over 10 µM; for `O=C(CNc1ccccc1Br)N/N=C/c1c(Cl)cncc1Cl` [Example 29, (2-Bromo-phenylamino)-acetic acid [1-(3,5-dichloro-pyridin-4-yl)-meth-(E)-ylidene]-hydrazide]: over 10 µM; for `CS(=O)(=O)c1cccc(NCC(=O)N/N=C/c2ccncc2)c1` [Example 73, (3-Methanesulfonyl-phenylamino)-acetic acid [1-pyridin-4-yl-meth-(E)-ylidene]-hydrazide]: 1 to 10 µM.
As for `Cn1cncc1/C=N/NC(=O)CNc1cccc(Cl)c1` [Example 92, (3-Chloro-phenylamino)-acetic acid [1-(3-methyl-3H-imidazol-4-yl)-meth-(E)-ylidene]-hydrazide], the Ki was over 10 µM.
For `O=C(CNc1cccc(Oc2ccc(F)cc2F)c1)N/N=C/c1ccncc1` [Example 84, [3-(2,4-Difluoro-phenoxy)-phenylamino]-acetic acid [1-pyridin-4-yl-meth-(E)-ylidene]-hydrazide], the Ki lay within 0.01 to 0.1 µM.
The same measure for `N#Cc1ccc(NCC(=O)N/N=C/c2ccncc2)cc1` [Example 60]: 1 to 10 µM.
The result for `COc1ccc(Oc2cccc(NCC(=O)NN=Cc3ccncc3)c2)cc1` (mixture of isomers) [Example 81] reads 0.01 to 0.1 µM; that for `NC(=O)c1ccc(NCC(=O)N/N=C/c2ccncc2)cc1` [Example 75, 4-{[1-Pyridin-4-yl-meth-(E)-ylidene-hydrazinocarbonylmethyl]-amino}-benzamide], over 10 µM.
The result for `CC(C)Oc1cccc(NCC(=O)N/N=C/c2c(Cl)cncc2Cl)c1` [Example 19, (3-Isopropoxy-phenylamino)-acetic acid [1-(3,5-dichloro-pyridin-4-yl)-meth-(E)-ylidene]-hydrazide] reads 1 to 10 µM.
Turning to `CCc1cccc(NCC(=O)N/N=C/c2ccncc2)c1` [Example 59, (3-Ethyl-phenylamino)-acetic acid [1-pyridin-4-yl-meth-(E)-ylidene]-hydrazide], the Ki lay in the range of 1 to 10 µM.
The result for `Cc1ccccc1NCC(=O)N/N=C/c1c(Cl)cncc1Cl` [Example 25, o-Tolylamino-acetic acid [1-(3,5-dichloro-pyridin-4-yl)-meth-(E)-ylidene]-hydrazide] reads 1 to 10 µM.
